One data set in a line: Cytotoxicity, MTT assay. The format is cell-based. The conditions noted are these: African green monkey, Vero cells (ATCC CCL-81). The method, then: Cells were incubated with different concentrations of compounds 3e, 3′a, 6a, 6b, 6d, 6f, 6k, 6s, 6n, and 6o, varying from 3.9 µM to 1.0 mM. The relative cell viabilities were determined after 24 h using the MTT assay and compared to the untreated control (100% viability). A 5% Tween solution was used as positive control. Figure 5 reports the viability % for all evaluated concentrations.
Evaluation of compounds’ cytotoxicity was performed using the MTT (3-(4,5-dimethylthiazol-2-yl)-2,5-diphenyltetrazolium bromide) colorimetric assay, based on the Mosmann et al. procedure with some modifications. […] Stock solutions of each compound prepared in Dulbeccos’s phosphate-buffered saline (D-PBS, Sigma, St. Quentin Fallavier, France) at a concentration of 2 mM were subjected to 2-fold serial dilutions with RPMI medium.
96-wells microtiter plates were first filled with 100 µL of a cell suspension prepared in RPMI medium (2 × 10^4 cells/100 µL). […] A third control was performed with a non-inoculated culture medium and compounds solution to validate the absence of interactions (OD measurements) between the assessed molecule and the reagents used in the procedure. […] After agitation, the OD was measured at 570 nm using a CLARIOstar Plus plate reader (BMG Labtech) and the viability percentage was calculated using the following formula. […]
Background: Tetrazolium dyes change colour on reduction, which living cells bring about.

Data set [1] has as its system P. aeruginosa PAO1 biofilms. Nature of the data set: Anti-biofilm assay, CFU count of adherent cells. The format is cell-based, Pseudomonas aeruginosa PAO1. Conditions: PAO1, 48 h, relative to untreated control, mean ± SD of 3 independent experiments; for Biofilm Inhibition (%): 50 µM; for inhibition at 50 µM: Pseudomonas aeruginosa. The method, then:
The effect of all compounds was evaluated on PAO1 biofilms, grown in 24-well microplates. The antibiofilm assay used in this study is based on a low nutritive culture medium, a rather weak inoculum (10^2 CFU/mL), and a regular renewal of the culture medium (at 2, 4, 6, 20, and 24 h), in order to promote the growth of adhered cells as biofilm, instead of the growth and/or sedimentation of planktonic cells. Since the QS systems are involved in early steps of biofilm formation, compounds were added at t0. After incubation, viable cells were quantified by CFU plate counts.
The rather low concentration of 50 µM used was set up according to detected concentrations of QS molecules in CF patients’ lungs. […] For all compounds, MICs/MBCs were higher than 500 µM. To be considered active, a threshold of 50% inhibition, relative to the untreated control, was applied.
Pseudomonas aeruginosa PAO1 was obtained from the Institute Pasteur Collection (CIP 104116, Paris, France), frozen and kept at -80 °C in a 20% (v/v) glycerol stock solution. Before each experiment, two successive subcultures were prepared on trypticase soy agar and incubated for 24 h under aerobic conditions at 37 °C. Before each experiment, bacterial suspensions of 10^8 CFU/mL were prepared by adjusting OD at 640 nm to 0.150.
The bacterial enumerations were done on trypticase soy agar. The minimum biofilm broth used for biofilm formation (MBB) was prepared in sterile distilled water (SDW) and was composed of MgSO4·7H2O (0.02 g/L), FeSO4·7H2O (0.5 mg/L), Na2HPO4 (1.25 g/L), KH2PO4 (0.5 g/L), (NH4)2SO4 (0.1 g/L), and glucose (0.05 g/L) from Merck-Sigma (France).
The enumeration of adhered bacteria was carried-out according to Campanac et al. with some modifications. P. aeruginosa biofilms were grown in a 24-wells microtiter plate for 48 h. The culture medium was composed of BBM 2X (1.0 mL) and 1.0 mL of a 10^−4 M solution of tested compound dissolved in SDW (final concentration 50 µM). After inoculation with 100 µL of a 10^2 CFU/mL bacterial suspension of P. aeruginosa PAO1 (final inoculum 10 CFU/well), the microtiter plate was incubated à 37 °C. After 2 h, 4 h, 6 h, 20 h and 24 h of incubation, each well was emptied, rinsed twice with SDW, and the culture medium was renewed. After 48 h of culture, the biofilm was rinsed twice with 2.0 mL SDW. The bottom of each well was scraped with a sterile spatula and suspended in 1.0 mL of SDW. The content of each well was diluted by serial dilutions in test tubes. After inclusion of 0.9 mL of each dilution in trypticase soy agar, Petri dishes were incubated for 48 h at 37 °C. The number of colony forming units (CFUs) was counted and the inhibition percentage calculated using the following formula: Inhibition(%)=Adhered cellsControl(CFU/mL)−Adhered cellsSample(CFU/mL) /Adhered cellsControl×100

The term IC50 denotes the midpoint of a concentration-inhibition curve. Low values mean greater potency, high ones weaker potency. As usually defined, the inhibition is how much of the control response was suppressed. Read a high inhibition as strong suppression. As usually defined, the melting point is the temperature, or range, at which the solid turns liquid. `O=C(Nc1cc(=O)c2ccccc2o1)c1ccc([N+](=O)[O-])cc1[N+](=O)[O-]` [6n, 2,4-Dinitro-N-(4-oxo-4H-chromen-2-yl) benzamide] displayed a melting point of 252 °C. The compound also showed an IC50 at 24 h in the data set “Cytotoxicity, MTT assay” above 1000 µM. Further, in data set [1], the “Biofilm Inhibition (%)” value was 90.0 ± 9.9% and the inhibition at 50 µM came out at 90.9 ± 9.9%.
Take `COc1ccc(NC(=O)c2cc(=O)c3ccccc3o2)cc1OC` [3s, N-(3,4-Dimethoxyphenyl)-4-oxo-4H-chromene-2-carboxamide]: the melting point came out at 229 °C. Besides, the inhibition at 50 µM in data set [1] is below 10%.
The like results for `O=C(Nc1cc([N+](=O)[O-])cc([N+](=O)[O-])c1)c1cc(=O)c2ccccc2o1` [3o, N-(3,5-Dinitrophenyl)-4-oxo-4H-chromene-2-carboxamide] were, in that order, 312 °C and 43.8 ± 24.2%.
In turn, `O=C(Nc1ccccc1)c1cc(=O)c2ccccc2o1` [3a, 4-Oxo-N-phenyl-4H-chromene-2-carboxamide] had a melting point of 229 °C. This compound also displayed an inhibition at 50 µM in data set [1] of 21.4 ± 17%.
Take `O=C(Nc1cc(=O)c2ccccc2o1)C12CC3CC(CC(C3)C1)C2` [6y, (3R,5R,7R)-N-(4-Oxo-4H-chromen-2-yl) adamantane-1-carboxamide]: the melting point is 286 °C. The same compound showed an inhibition at 50 µM in data set [1] of 19.5 ± 1.8%.
`CCCC(=O)Nc1cc(=O)c2ccccc2o1` [6w, N-(4-Oxo-4H-chromen-2-yl) butyramide] had a melting point of 212 °C. Besides, in data set [1], the inhibition at 50 µM is 56.4 ± 7.2%.
The like results for `O=C(NCCCn1ccnc1)c1cc(=O)c2ccccc2o1` [3′f, N-(3-(1H-Imidazol-1-yl)propyl)-4-oxo-4H-chromene-2-carboxamide] were, in that order, 171 °C and below 10%.
For `O=C(Nc1ncccn1)c1cc(=O)c2ccccc2o1` [3v, 4-Oxo-N-(pyrimidin-2-yl)-4H-chromene-2-carboxamide], in that order: 189 °C and 46 ± 7.3%.
The like results for `O=C(NC1CCCCC1)c1cc(=O)c2ccccc2o1` [3x, N-Cyclohexyl-4-oxo-4H-chromene-2-carboxamide] were, in that order, 179 °C and 32 ± 10.3%.
Compound `O=C(Nc1ccc(Cl)cc1)c1cc(=O)c2ccccc2o1` [3f, N-(4-Chlorophenyl)-4-oxo-4H-chromene-2-carboxamide] registered a melting point of 265 °C. This compound yielded an inhibition at 50 µM in data set [1] of 25.9 ± 4.3%.
The like results for `O=C(Nc1ccccc1Cl)c1cc(=O)c2ccccc2o1` [3i, N-(2-Chlorophenyl)-4-oxo-4H-chromene-2-carboxamide] were, in that order, 181 °C and 35.2 ± 14.8%.
For `COc1ccc(C(=O)Nc2cc(=O)c3ccccc3o2)cc1OC` [6s, 3,4-Dimethoxy-N-(4-oxo-4H-chromen-2-yl) benzamide], in that order: 246 °C and 71.9 ± 13.5%.
The like results for `O=C(Nc1cc(=O)c2ccccc2o1)c1cc([N+](=O)[O-])cc([N+](=O)[O-])c1` [6o, 3,5-Dinitro-N-(4-oxo-4H-chromen-2-yl) benzamide] were, in that order, 291 °C and 78.3 ± 4%.
The compound `COc1cc(NC(=O)c2cc(=O)c3ccccc3o2)cc(OC)c1` [3t, N-(3,5-Dimethoxyphenyl)-4-oxo-4H-chromene-2-carboxamide] had a melting point of 211 °C. For the same compound, in data set [1], the inhibition at 50 µM is below 10%.
For `CC(C)(C)OC(=O)N1CCC(CNC(=O)c2cc(=O)c3ccccc3o2)CC1` [3′e, Tert-butyl 4-((4-oxo-4H-chromene-2-carboxamido)methyl)piperidine-1-carboxylate], in that order: 129 °C and 36 ± 28.6%.
The like results for `COc1cc(OC)cc(C(=O)Nc2cc(=O)c3ccccc3o2)c1` [6t, 3,5-Dimethoxy-N-(4-oxo-4H-chromen-2-yl) benzamide] were, in that order, 198 °C and 43.8 ± 2.4%.
The like results for `O=C(Nc1cc(=O)c2ccccc2o1)c1ccccc1F` [6h, 2-Fluoro-N-(4-oxo-4H-chromen-2-yl) benzamide] were, in that order, 194 °C and 27.8 ± 10.7%.
As to `O=C(Nc1cc(=O)c2ccccc2o1)c1ccc([N+](=O)[O-])cc1` [6m, 4-Nitro-N-(4-oxo-4H-chromen-2-yl) benzamide], the melting point amounted to 323 °C. In addition, in data set [1], the “Biofilm Inhibition (%)” value is “inactive” and the inhibition at 50 µM is below 10%.
`O=C(Nc1cc(=O)c2ccccc2o1)c1ncccn1` [6v, N-(4-Oxo-4H-chromen-2-yl) pyrimidine-2-carboxamide] registered a melting point of 215 °C. In data set [1], this compound returned an inhibition at 50 µM of 48.8 ± 2.6%.
For `CSc1ccccc1C(=O)Nc1cc(=O)c2ccccc2o1` [6r, 2-(Methylthio)-N-(4-oxo-4H-chromen-2-yl) benzamide], in that order: 218 °C and 60.3 ± 15.8%.
The like results for `O=C(Nc1ccc([N+](=O)[O-])cc1)c1cc(=O)c2ccccc2o1` [3m, N-(4-Nitrophenyl)-4-oxo-4H-chromene-2-carboxamide] were, in that order, 307 °C and 58.7 ± 2.5%.
`O=C(NC12CC3CC(CC(C3)C1)C2)c1cc(=O)c2ccccc2o1` [3y, N-((3S,5S,7S)-Adamantan-1-yl)-4-oxo-4H-chromene-2-carboxamide]: the melting point was 201 °C. The same compound gave an inhibition at 50 µM in data set [1] of 24.4 ± 8.8%.
For `COc1ccccc1NC(=O)c1cc(=O)c2ccccc2o1` [3q, N-(2-Methoxyphenyl)-4-oxo-4H-chromene-2-carboxamide], in that order: 199 °C and 41.3 ± 5.7%.

(Values after publication PMC9026348, “Investigation of Direct and Retro Chromone-2-Carboxamides Based Analogs of Pseudomonas aeruginosa Quorum Sensing Signal as New Anti-Biofilm Agents” (Pharmaceuticals, 2022).)
